# Biological target: T1, Tie-2-Kinase (Homo sapiens, UniProt Q02763)
# T1 construct: made in house
# Test: Tie-2-Kinase HTRF-Assay
# Assay type: biochemical
# Details: either in the Tie2 kinase assay or in the Tie2 autophosphorylation ELISA test; read-out: IC50, inhibit Tie2
# From the text: Tie-2 phosphorylates tyrosine residues of the artificial substrate polyGAT (biotinylated polyGluAlaTyr). Detection of phosphorylated product is achieved specifically by a trimeric detection complex consisting of the phosphorylated substrate, streptavidin-XLent (SA-XLent) which binds to biotin, and Europium Cryptate-labeled anti-phosphotyrosine antibody PT66 which binds to phosphorylated tyrosine. Excitation of Europium fluorescence with 337 nm light results in emission of long-lived light with 620 nm. In case a trimeric detection complex has formed, part of the energy will be transferred to the SA-XLent fluorophore that itself then emits long-lived light of 665 nm (FRET: fluorescence resonance energy transfer). […] Measurement is performed in a Packard Discovery or BMG Rubystar instrument. A-counts (emission at 665 nm) will be divided by B-counts (emission at 620 nm) and multiplicated with a factor of 10000. The resulting numbers are called the “well ratio” of the sample.
# • Enzyme: Tie-2-Kinase, in house, aliquots (12×10 mL) stored at −80° C. • Substrate: PolyGAT labeled with Biotin (1000 μg/mL); ClS Bio; # 61GATBLB; • aliquots stored at −20° C. • ATP: Amersham Pharmacia Biotech Inc. # 27-2056-01; 100 mM; stored at −20° C. • Antibody: PT66-Eu Cryptate; CIS Bio; # 61T66KLB; 30 μg/mL; aliquots stored at −20° C. • SA-XLent; CIS Bio; # 611SAXLB; 1000 μg/mL; aliquots stored at −80° C. • Microplates: 384 Well black, SV, Greiner, # 784076 Solutions: Assay Buffer: • 50 mM HEPES (pH 7.0), 25 mM MgCl2, 5 mM MnCl2, 1 mM DTT, 0.5 mM Na3VO4, 0.01% (v/v) NP40, 1× Complete EDTA free Enzyme Working Solution: • Tie-2 stock solution is diluted 1:250 in assay buffer Substrate Working Solution: • PolyGAT (1000 μg/mL; 36.23 μM) is diluted 1:90.6 to 400 nM or 77.3 ng/well, ATP (100 mM) is diluted 1:5000 to 20.0 μM. Both dilutions in assay buffer. Final assay concentrations: poly-GAT: 200 nM or 5.25 μg/mL, ATP: 10 μM (1×Km each). • Detection solution: 50 mM HEPES (pH 7.0), BSA 0.2%, 0.6 M KF, 200 mM EDTA, PT66-Europium Cryptate 2.5 ng/well, SA-XLent Cis Bio 90 ng/well. Assay Steps All Steps at 20° C. • 1. 0.75 μL of compound solution in 30% (v/v) DMSO • 2. add 7 μL of substrate working solution • 3. add 7 μL of enzyme working solution • 4. incubate 75 min (reaction volume: 14.75 μL) • 5. add 8 μL of detection solution • 6. incubate 180 min or over night at 4° C. (total volume: 22.75 μL) • 7. measure HTRF in Packard Discovery or BMG Rubystar instrument (delay 50 μs, integrated time 400 μs) Final Concentrations (in 14.75 μL Reaction Volume): • Enzyme: unknown • polyGAT (1×Km): 200 nM (77.3 ng) • ATP (1×Km): 10 μM • DMSO: 1.5% (v/v) • Buffer conditions: 50 mM HEPES (pH 7.0), 25 mM MgCl2, 5 mM MnCl2, 1 mM DTT, 0.5 mM NaVO4, 0.01% (v/v) NP40, 1× Complete Controls: • C0: uninhibited reaction (DMSO only) • Ci: inhibited reaction with 20 μM Staurosporine Biological Experiment 3: Proliferation Test
# T1 sequence (Q02763 23-1124): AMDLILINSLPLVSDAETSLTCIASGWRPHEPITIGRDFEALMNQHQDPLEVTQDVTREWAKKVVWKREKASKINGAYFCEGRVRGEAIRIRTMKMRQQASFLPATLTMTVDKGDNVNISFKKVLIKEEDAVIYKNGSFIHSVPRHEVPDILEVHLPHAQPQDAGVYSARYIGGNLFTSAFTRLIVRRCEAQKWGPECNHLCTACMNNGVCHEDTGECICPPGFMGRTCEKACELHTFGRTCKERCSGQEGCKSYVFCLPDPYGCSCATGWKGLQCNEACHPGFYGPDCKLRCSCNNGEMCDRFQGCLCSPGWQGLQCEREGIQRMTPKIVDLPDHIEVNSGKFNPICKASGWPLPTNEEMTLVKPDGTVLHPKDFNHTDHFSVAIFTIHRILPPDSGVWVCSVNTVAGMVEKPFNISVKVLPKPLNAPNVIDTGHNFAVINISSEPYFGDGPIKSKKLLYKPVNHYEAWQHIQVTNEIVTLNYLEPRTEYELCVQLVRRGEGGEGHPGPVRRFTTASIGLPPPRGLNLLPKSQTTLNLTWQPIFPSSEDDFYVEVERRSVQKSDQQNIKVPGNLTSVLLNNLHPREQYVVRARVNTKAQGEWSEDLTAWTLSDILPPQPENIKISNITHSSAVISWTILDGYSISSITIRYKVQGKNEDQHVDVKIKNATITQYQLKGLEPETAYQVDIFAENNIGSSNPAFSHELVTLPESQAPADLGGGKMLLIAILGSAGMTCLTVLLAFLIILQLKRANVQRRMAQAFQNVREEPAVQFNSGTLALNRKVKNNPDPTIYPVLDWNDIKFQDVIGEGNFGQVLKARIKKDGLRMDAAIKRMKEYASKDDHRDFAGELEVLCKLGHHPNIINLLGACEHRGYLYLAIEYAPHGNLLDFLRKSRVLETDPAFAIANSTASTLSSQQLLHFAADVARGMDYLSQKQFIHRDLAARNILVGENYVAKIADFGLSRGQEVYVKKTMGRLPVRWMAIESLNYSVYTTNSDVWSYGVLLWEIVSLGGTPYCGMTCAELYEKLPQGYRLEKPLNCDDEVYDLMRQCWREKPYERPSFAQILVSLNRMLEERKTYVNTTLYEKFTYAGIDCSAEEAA
row,Compound,IC50
1,"O=S1(=O)NCCCNc2nc(ncc2-c2ccc3c(c2)OCO3)Nc2cccc1c2 [Example 1, 1^5-(1,3-benzodioxol-5-yl)-4-thia-2,5,9-triaza-1(2,4) pyrimidina-3(1,3)-benzenacyclonona-phane 4,4-dioxide]",≤ 1000 nM
2,"O=C(COc1ccc(-c2cnc3nc2NCCCNS(=O)(=O)c2cccc(c2)N3)cc1)c1ccc(F)cc1 [Example 2, 2-[4-[4,4-dioxo-4λ^6-thia-2,5,9-triaza-1(2,4)-pyrimidina-3(1,3)-benzenacyclo-nonaphan-1^5-yl]phenoxy]-1-(4-fluorophenyl)-ethanone]",≤ 1000 nM
3,"O=C(COc1ccc(-c2cnc3nc2NCCCNS(=O)(=O)c2cccc(c2)N3)cc1)c1ccccc1 [Example 3, 2-[4-[4,4-dioxo-4λ^6-thia-2,5,9-triaza-1(2,4)-pyrimidina-3(1,3)-benzenacyclo-nonaphan-1^5-yl]phenoxy]-1-phenylethanone]",≤ 1000 nM
4,"O=C(Nc1ccccc1)Nc1ccc(-c2cnc3nc2NCCCNS(=O)(=O)c2cccc(c2)N3)cc1 [Example 8, N-[4-[4,4-dioxo-4λ^6-thia-2,5,9-triaza-1(2,4)-pyrimidina-3(1,3)-benzena-cyclononaphan-1^5-yl]phenyl]-N′-phenylurea]",≤ 1000 nM
5,"O=C(Nc1ccc(-c2cnc3nc2NCCCNS(=O)(=O)c2cccc(c2)N3)cc1)Nc1cccc(C(F)(F)F)c1 [Example 9, N-[4-[4,4-dioxo-4λ^6-thia-2,5,9-triaza-1(2,4)-pyrimidina-3(1,3)-benzena-cyclononaphan-1^5-yl]phenyl]-N′-[3-(trifluoromethyl)-phenyl]urea]",≤ 1000 nM
6,"O=C(Nc1ccc(-c2cnc3nc2NCCCNS(=O)(=O)c2cccc(c2)N3)cc1)Nc1cc(C(F)(F)F)ccc1F [Example 10, N-[4-[4,4-dioxo-4λ^6-thia-2,5,6-triaza-1(2,4)-pyrimidina-3(1,3)-benzena-cyclononaphan-1^5-yl]phenyl]-N′-[2-fluoro-5-(trifluoromethyl)-phenyl]urea]",≤ 1000 nM
7,"COc1ccc(S(=O)(=O)Nc2ccc(-c3cnc4nc3NCCCNS(=O)(=O)c3cccc(c3)N4)cc2)cc1 [Example 23, N-[4-[4,4-dioxo-4λ^6-thia-2,5,9-triaza-1(2,4)-pyrimidina-3(1,3)-benzena-cyclononaphan-1^5-yl]phenyl]-4-methoxybenzene-sulfonamide]",≤ 1000 nM
